Source: ChEMBL document CHEMBL1165930, “The anticancer activity of 3- and 10-bromofascaplysins is mediated by caspase-8, -9, -3-dependent apoptosis” (Bioorg Med Chem, 2010)
The source made the active and inactive calls. The calls are words filed in the database; no cut-off is given here.

Key:
THP-1 [1] = experiment: Induction of apoptosis in human THP1 cells assessed as early apoptotic cells at 500 nM after 24 hrs by FITC-conjugated annexin V and propidium iodide staining-based flow cytometry; assay type: functional
HL-60 [2] = experiment: Induction of apoptosis in human HL60 cells assessed as early apoptotic cells at 250 nM after 24 hrs by FITC-conjugated annexin V and propidium iodide staining-based flow cytometry; assay type: functional
HL-60 [3] = experiment: Induction of apoptosis in human HL60 cells assessed as decrease in PARP level at 250 nM after 24 hrs by Western blot analysis; assay type: functional, cell-based
HL-60 [4] = experiment: Induction of apoptosis in human HL60 cells assessed as decrease in Bid protein level at 250 nM after 24 hrs by Western blot analysis; assay type: functional, cell-based
THP-1 [5] = experiment: Selectivity ratio of INCC50 for human THP1 cells to IC50 for human THP1 cells; assay type: functional
[6] = target: Cellular tumor antigen p53 (Mus musculus) (UniProt P02340); experiment: Inhibition of p53-mediated transcriptional activity in mouse JB6 Cl41 cells after 24 hrs by luciferase reporter gene assay; assay type: cell-based; conditions: TDE = time-dependent effect
HL-60 [7] = experiment: Induction of apoptosis in human HL60 cells assessed as decrease in PARP level at 500 nM after 24 hrs by Western blot analysis; assay type: functional, cell-based
HL-60 [8] = experiment: Induction of apoptosis in human HL60 cells assessed as decrease in procaspase-9 level at 500 nM after 24 hrs by Western blot analysis; assay type: functional, cell-based
HeLa [9] = experiment: Cytotoxicity against human HeLa cells after 22 hrs by MTS assay; assay type: functional, cell-based
[10] = Effect on EGF-stimulated proliferation of ERK2-expressing mouse JB6 Cl41 cells assessed as cell viability at 125 nM after 22 hrs by MTS assay; assay type: functional; conditions: JB6 Cl41, 22 h, read-out: Activity
DLD-1 = experiment: Cytotoxicity against human DLD1 cells after 22 hrs by MTS assay; assay type: functional, cell-based; conditions: DLD-1, 22 h
THP-1 [11] = experiment: Induction of apoptosis in human THP1 cells assessed as viable cells at 1000 nM after 24 hrs by FITC-conjugated annexin V and propidium iodide staining-based flow cytometry; assay type: functional; conditions: THP-1, 24 h, read-out: Activity
[12] = Effect on EGF-stimulated proliferation of JNK1-expressing mouse JB6 Cl41 cells assessed as cell viability at 125 nM after 22 hrs by MTS assay; assay type: functional; conditions: JB6 Cl41, 22 h, read-out: Activity
[13] = Inhibition of EGF-stimulated colony formation in mouse JB6 Cl41 cells by anchorage-independent soft agar assay; assay type: functional
THP-1 [14] = experiment: Anticancer activity in human THP1 cells assessed as inhibition of colony formation by anchorage-independent soft agar assay; assay type: functional
THP-1 [15] = experiment: Induction of apoptosis in human THP1 cells assessed as non-viable necrotic cells at 500 nM after 24 hrs by FITC-conjugated annexin V and propidium iodide staining-based flow cytometry; assay type: functional
JB6 Cl41 = experiment: Inhibition of EGF-stimulated neoplastic transformation of mouse JB6 Cl41 cells by anchorage-independent soft agar assay; assay type: functional, cell-based
THP-1 [16] = experiment: Induction of apoptosis in human THP1 cells assessed as non-viable necrotic cells at 1000 nM after 24 hrs by FITC-conjugated annexin V and propidium iodide staining-based flow cytometry; assay type: functional
THP-1 [17] = experiment: Induction of apoptosis in human THP1 cells assessed as late apoptotic cells at 500 nM after 24 hrs by FITC-conjugated annexin V and propidium iodide staining-based flow cytometry; assay type: functional
[18] = target: Transcription factor Jun (Mus musculus) (UniProt P05627); experiment: Induction of AP1-mediated transcriptional activity in mouse JB6 Cl41 cells at 125 to 250 nM after 6 hrs by luciferase reporter gene assay relative to control; assay type: cell-based
[19] = Effect on EGF-stimulated proliferation of mouse JB6 Cl41 cells assessed as cell viability at 250 nM after 22 hrs by MTS assay; assay type: functional; conditions: JB6 Cl41, 22 h, read-out: Activity
THP-1 [20] = experiment: Induction of apoptosis in human THP1 cells assessed as early apoptotic cells at 1000 nM after 24 hrs by FITC-conjugated annexin V and propidium iodide staining-based flow cytometry; assay type: functional
[21] = Effect on EGF-stimulated proliferation of ERK2-expressing mouse JB6 Cl41 cells assessed as cell death at 250 nM after 22 hrs by MTS assay; assay type: functional
THP-1 [22] = experiment: Induction of apoptosis in human THP1 cells after 24 hrs by FITC-conjugated annexin V and propidium iodide staining-based flow cytometry; assay type: functional, cell-based
[23] = target: Cellular tumor antigen p53 (Mus musculus) (UniProt P02340); experiment: Inhibition of p53-mediated transcriptional activity in mouse JB6 Cl41 cells at 125 to 250 nM after 24 hrs by luciferase reporter gene assay relative to control; assay type: cell-based
[24] = target: Cellular tumor antigen p53 (Mus musculus) (UniProt P02340); experiment: Inhibition of p53-mediated transcriptional activity in mouse JB6 Cl41 cells at 125 to 500 nM by luciferase reporter gene assay; assay type: cell-based; conditions: TDE = time-dependent effect
HL-60 [25] = experiment: Cytotoxicity against human HL60 cells after 22 hrs by MTS assay; assay type: functional, cell-based; conditions: HL-60, 22 h
[26] = Inhibition of EGF-stimulated viability of mouse JB6 Cl41 cells after 22 hrs by MTS assay; assay type: functional, cell-based; conditions: JB6 Cl41, 22 h
HeLa [27] = experiment: Anticancer activity in human HeLa cells assessed as inhibition of colony formation by anchorage-independent soft agar assay; assay type: functional
SK-MEL-28 = experiment: Selectivity ratio of INCC50 for human SK-MEL-28 cells to IC50 for human SK-MEL-28 cells; assay type: functional
[28] = target: Transcription factor Jun (Mus musculus) (UniProt P05627); experiment: Induction of AP1-mediated transcriptional activity in mouse JB6 Cl41 cells after 24 hrs by luciferase reporter gene assay; assay type: cell-based
HeLa [29] = experiment: Selectivity ratio of INCC50 for human HeLa cells to IC50 for human HeLa cells; assay type: functional

Cellular tumor antigen p53 (Mus musculus), sequence (P02340 whole entry): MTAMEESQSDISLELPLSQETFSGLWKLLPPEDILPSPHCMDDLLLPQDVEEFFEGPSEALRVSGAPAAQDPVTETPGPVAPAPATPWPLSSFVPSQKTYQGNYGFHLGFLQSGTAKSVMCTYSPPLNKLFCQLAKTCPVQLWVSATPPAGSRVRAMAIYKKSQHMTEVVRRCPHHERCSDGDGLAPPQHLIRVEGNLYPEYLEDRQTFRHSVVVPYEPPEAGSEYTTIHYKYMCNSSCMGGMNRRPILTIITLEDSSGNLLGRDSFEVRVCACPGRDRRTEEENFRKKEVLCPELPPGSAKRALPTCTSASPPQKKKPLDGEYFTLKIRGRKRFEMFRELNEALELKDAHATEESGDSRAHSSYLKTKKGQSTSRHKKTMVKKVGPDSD
Transcription factor Jun (Mus musculus), sequence (P05627 whole entry): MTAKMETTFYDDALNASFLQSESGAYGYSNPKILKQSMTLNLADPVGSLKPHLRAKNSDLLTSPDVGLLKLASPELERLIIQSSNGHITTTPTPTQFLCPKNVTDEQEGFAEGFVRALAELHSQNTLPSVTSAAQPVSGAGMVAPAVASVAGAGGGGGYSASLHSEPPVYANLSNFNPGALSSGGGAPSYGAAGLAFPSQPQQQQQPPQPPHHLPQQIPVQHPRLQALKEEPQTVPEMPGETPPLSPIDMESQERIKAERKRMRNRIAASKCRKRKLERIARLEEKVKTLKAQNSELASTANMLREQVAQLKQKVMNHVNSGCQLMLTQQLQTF

Compound: O=C1c2ccc(Br)cc2-[n+]2ccc3c([nH]c4ccccc43)c21.[Cl-]
- Activity (THP-1 [1]): 13%
- Activity (HL-60 [2]): 40%
- inhibition (HL-60 [3]): Active
- inhibition (HL-60 [4]): Active
- Selectivity ratio (THP-1 [5]): 8.7
- inhibition [6]: tde
- inhibition (HL-60 [7]): Active
- inhibition (HL-60 [8]): Active
- IC50 (HeLa [9]): 337 nM
- viability at 0.125 µM [10]: 30%
- IC50 (DLD-1): 243 nM
- viability at 1 µM (THP-1 [11]): 40.9%
- viability at 0.125 µM [12]: 60%
- INCC50 [13]: 106.4 nM
- INCC50 (THP-1 [14]): 59.7 nM
- Activity (THP-1 [15]): 6.4%
- inhibition (JB6 Cl41): Dose-dependent effect
- Activity (THP-1 [16]): 18%
- Activity (THP-1 [17]): 12.4%
- fold change (FC) [18]: 2
- viability at 0.25 µM [19]: 60%
- Activity (THP-1 [20]): 17.9%
- Activity [21]: 100%
- Activity (THP-1 [22]): Dose-dependent effect
- inhibition [23]: 40%
- inhibition [24]: tde
- IC50 (HL-60 [25]): 549 nM
- IC50 [26]: 284 nM
- INCC50 (HeLa [27]): 108.1 nM
- Selectivity ratio (SK-MEL-28): 4.8
- Activity [28]: Dose-dependent effect
- Selectivity ratio (HeLa [29]): 3.1
